Reference: patent publication US10584128B2, “Bicyclic dihydropyrimidine-carboxamide derivatives as Rho-Kinase inhibitors” (CHIESI FARMACEUTICI S.p.A., priority 2016, dated 2020)

Key:
[1] = biological target: Rho kinase 1 (Homo sapiens, UniProt Q13464); experiment: In vitro Rho kinase inhibitory activity assay (ADP-Glo kit, Myelin Basic Protein substrate); format: biochemical; details: 10 μM ATP, 25° C., read-out: ROCK1 inhibitory activity (Ki, range of activity)
How it was run: (§1)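 ADP-Glo luminescence assay at 25 °C in 40 mM Tris pH 7.5, 20 mM MgCl2, 0.1 mg/ml BSA, 50 μM DTT, with 2.5 μM myelin basic protein, 10 μM ATP and 1% DMSO. Compound and ROCK1 or ROCK2 were preincubated 30 min, then reacted 1 h. IC50 came from a sigmoidal fit; Ki via Cheng-Prusoff.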

[2] = biological target: Rho kinase 2 (Homo sapiens, UniProt O75116); experiment: as above; format: biochemical; details: 10 μM ATP, 25° C., read-out: ROCK2 inhibitory activity (Ki, range of activity)
Sequence of Rho kinase 2 (O75116 whole entry): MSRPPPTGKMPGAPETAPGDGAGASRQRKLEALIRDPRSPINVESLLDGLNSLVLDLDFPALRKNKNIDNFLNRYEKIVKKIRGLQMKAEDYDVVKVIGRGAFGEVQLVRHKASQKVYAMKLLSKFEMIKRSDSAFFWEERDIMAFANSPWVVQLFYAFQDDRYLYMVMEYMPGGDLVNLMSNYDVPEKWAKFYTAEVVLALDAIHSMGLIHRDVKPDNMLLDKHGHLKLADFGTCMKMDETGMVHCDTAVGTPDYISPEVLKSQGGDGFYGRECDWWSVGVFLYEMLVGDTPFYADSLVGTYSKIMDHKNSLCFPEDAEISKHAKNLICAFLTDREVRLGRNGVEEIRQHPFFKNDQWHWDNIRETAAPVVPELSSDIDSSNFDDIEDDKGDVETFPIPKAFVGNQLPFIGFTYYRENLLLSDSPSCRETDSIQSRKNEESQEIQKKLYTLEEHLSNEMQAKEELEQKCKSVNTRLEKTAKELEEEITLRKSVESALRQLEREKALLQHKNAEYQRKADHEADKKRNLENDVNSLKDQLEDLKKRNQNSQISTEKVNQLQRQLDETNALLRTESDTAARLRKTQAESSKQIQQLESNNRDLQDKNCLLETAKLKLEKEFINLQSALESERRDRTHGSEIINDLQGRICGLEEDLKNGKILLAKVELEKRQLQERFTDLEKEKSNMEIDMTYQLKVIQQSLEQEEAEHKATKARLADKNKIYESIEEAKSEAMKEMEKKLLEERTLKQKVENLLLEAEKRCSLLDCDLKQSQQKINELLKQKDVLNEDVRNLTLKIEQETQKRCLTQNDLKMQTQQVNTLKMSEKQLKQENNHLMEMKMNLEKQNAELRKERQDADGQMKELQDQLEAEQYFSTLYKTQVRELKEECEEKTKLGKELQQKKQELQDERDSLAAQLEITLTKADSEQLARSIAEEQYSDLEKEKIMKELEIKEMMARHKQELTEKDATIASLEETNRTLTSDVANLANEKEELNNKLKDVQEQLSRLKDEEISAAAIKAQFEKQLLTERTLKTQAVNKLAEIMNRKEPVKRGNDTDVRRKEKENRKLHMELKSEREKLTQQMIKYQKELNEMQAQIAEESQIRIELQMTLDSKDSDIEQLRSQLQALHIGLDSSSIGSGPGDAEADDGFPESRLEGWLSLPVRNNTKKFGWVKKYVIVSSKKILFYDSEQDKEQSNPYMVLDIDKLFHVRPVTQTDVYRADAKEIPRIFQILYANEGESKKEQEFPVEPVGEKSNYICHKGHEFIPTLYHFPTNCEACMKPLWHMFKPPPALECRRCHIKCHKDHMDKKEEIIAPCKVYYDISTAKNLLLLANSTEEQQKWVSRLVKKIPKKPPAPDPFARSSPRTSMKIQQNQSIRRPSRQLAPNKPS
How it was run: as §1

Sequence of Rho kinase 1 (Q13464 whole entry): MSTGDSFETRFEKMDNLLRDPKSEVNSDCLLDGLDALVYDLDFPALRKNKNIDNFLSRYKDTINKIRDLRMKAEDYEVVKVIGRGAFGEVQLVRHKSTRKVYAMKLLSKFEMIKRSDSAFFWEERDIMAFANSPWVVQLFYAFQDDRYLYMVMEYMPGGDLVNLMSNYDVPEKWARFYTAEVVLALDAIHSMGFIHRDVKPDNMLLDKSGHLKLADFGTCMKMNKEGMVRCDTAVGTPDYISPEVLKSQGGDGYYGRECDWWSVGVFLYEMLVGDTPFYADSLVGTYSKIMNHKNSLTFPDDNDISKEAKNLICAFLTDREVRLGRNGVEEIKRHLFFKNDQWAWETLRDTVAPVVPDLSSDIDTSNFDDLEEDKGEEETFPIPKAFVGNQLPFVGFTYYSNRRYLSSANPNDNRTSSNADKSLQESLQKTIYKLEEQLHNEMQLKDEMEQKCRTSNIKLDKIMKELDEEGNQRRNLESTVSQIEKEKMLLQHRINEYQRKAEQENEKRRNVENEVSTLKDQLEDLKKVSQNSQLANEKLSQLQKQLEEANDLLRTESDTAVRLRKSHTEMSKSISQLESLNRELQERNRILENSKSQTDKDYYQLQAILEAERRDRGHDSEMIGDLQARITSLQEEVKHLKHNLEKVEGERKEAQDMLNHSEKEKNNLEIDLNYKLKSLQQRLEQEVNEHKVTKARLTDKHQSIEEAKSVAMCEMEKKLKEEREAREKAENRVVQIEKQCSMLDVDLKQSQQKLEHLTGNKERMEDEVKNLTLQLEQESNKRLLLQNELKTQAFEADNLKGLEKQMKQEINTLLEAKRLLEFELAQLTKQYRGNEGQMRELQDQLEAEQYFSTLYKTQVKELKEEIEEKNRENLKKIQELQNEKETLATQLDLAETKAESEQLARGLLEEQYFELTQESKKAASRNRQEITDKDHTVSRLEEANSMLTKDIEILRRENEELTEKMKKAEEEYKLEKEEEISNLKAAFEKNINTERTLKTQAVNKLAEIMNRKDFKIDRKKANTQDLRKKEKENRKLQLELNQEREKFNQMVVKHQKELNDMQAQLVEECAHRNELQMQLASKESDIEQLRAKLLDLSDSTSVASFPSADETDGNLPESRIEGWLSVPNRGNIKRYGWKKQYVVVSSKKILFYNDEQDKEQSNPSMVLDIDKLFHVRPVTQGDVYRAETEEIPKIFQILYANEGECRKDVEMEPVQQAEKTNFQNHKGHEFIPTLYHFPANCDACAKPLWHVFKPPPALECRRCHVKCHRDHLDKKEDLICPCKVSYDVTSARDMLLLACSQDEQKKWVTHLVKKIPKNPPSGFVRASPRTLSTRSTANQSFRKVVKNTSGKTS

| Ki [1] [nM] | Ki [2] [nM] | Structure (SMILES) |
| --- | --- | --- |
| < 50 | < 50 | CC1=C(C(=O)Nc2ccc3cnccc3c2)C(c2ccc(C(F)(F)F)c(F)c2)n2nc(CO)cc2N1 (single isomer, unassigned) [Example 65A, 7-(3-fluoro-4-(trifluoromethyl)phenyl)-2-(hydroxymethyl)-N-(isoquinolin-6-yl)-5-methyl-4,7-dihydropyrazolo[1,5-a]pyrimidine-6-carboxamide] |
| < 50 | < 50 | CC1=C(C(=O)Nc2ccc3[nH]ncc3c2)C(c2ccc(C(F)(F)F)cc2)n2nc(C#N)cc2N1 (centres unmarked) [Example 34, 2-cyano-N-(1H-indazol-5-yl)-5-methyl-7-(4-(trifluoromethyl)phenyl)-4,7-dihydropyrazolo[1,5-a]pyrimidine-6-carboxamide] |
| < 50 | < 50 | CC1=C(C(=O)Nc2ccc3[nH]ncc3c2)C(c2ccc(C(F)(F)F)cc2)n2nc(CN3CCOCC3)cc2N1 (centres unmarked) [Example 107, N-(1H-indazol-5-yl)-5-methyl-2-(morpholinomethyl)-7-(4-(trifluoromethyl)phenyl)-4,7-dihydropyrazolo[1,5-a]pyrimidine-6-carboxamide] |
| < 50 | < 50 | CC1=C(C(=O)Nc2ccc3cnccc3c2)C(c2ccc(C(F)(F)F)c(F)c2)n2nc(C(=O)NCCN3CCCCC3)nc2N1 (centres unmarked) [Example 129, 7-(3-fluoro-4-(trifluoromethyl)phenyl)-N6-(isoquinolin-6-yl)-5-methyl-N2-(2-(piperidin-1-yl)ethyl)-4,7-dihydro-[1,2,4]triazolo[1,5-a]pyrimidine-2,6-dicarboxamide] |
| > 500 | > 500 | CCOC(=O)c1cc2n(n1)C(c1ccc(F)cc1)C(C(=O)Nc1ccc3[nH]ncc3c1)=C(C)N2 (single isomer, unassigned) [Example 4A, ethyl 6-((1H-indazol-5-yl)carbamoyl)-7-(4-fluorophenyl)-5-methyl-4,7-dihydropyrazolo[1,5-a]pyrimidine-2-carboxylate] |
| < 50 | < 50 | CCOC(=O)c1nn2c(c1C#N)NC(C)=C(C(=O)Nc1ccc3[nH]ncc3c1)C2c1ccc(C(F)(F)F)cc1 (centres unmarked) [Example 16, ethyl 6-((1H-indazol-5-yl)carbamoyl)-3-cyano-5-methyl-7-(4-(trifluoromethyl)phenyl)-4,7-dihydropyrazolo[1,5-a]pyrimidine-2-carboxylate] |
| < 50 | < 50 | CC1=C(C(=O)Nc2ccc3cnccc3c2)C(c2ccc(C(F)(F)F)c(F)c2)n2nc(CNC(=O)CCN3CCCCC3)cc2N1 (single isomer, unassigned) [Example 138A, 7-(3-Fluoro-4-(trifluoromethyl)phenyl)-N-(isoquinolin-6-yl)-5-methyl-2-((3-(piperidin-1-yl)propanamido)methyl)-4,7-dihydropyrazolo[1,5-a]pyrimidine-6-carboxamide] |
| < 50 | < 50 | CC1=C(C(=O)Nc2ccc3cnccc3c2)C(c2ccc(C(F)(F)F)c(F)c2)n2nc(CCN(C)C)cc2N1 (centres unmarked) [Example 37, 2-(2-(dimethylamino)ethyl)-7-(3-fluoro-4-(trifluoromethyl)phenyl)-N-(isoquinolin-6-yl)-5-methyl-4,7-dihydropyrazolo[1,5-a]pyrimidine-6-carboxamide] |
| 50 to 500 | 50 to 500 | CC1=C(C(=O)Nc2ccc3[nH]ncc3c2)C(c2ccc(C(F)(F)F)c(F)c2)n2nnnc2N1 (single isomer, unassigned) [Example 25B, 7-(3-fluoro-4-(trifluoromethyl)phenyl)-N-(1H-indazol-5-yl)-5-methyl-4,7-dihydrotetrazolo[1,5-a]pyrimidine-6-carboxamide] |
| > 500 | 50 to 500 | CCOC(=O)c1cc2n(n1)C(c1ccc(C(F)(F)F)c(F)c1)C(C(=O)Nc1cc3cnccc3s1)=C(C)N2 (centres unmarked) [Example 41, Ethyl 7-(3-fluoro-4-(trifluoromethyl)phenyl)-5-methyl-6-(thieno[3,2-c]pyridin-2-ylcarbamoyl)-4,7-dihydropyrazolo[1,5-a]pyrimidine-2-carboxylate] |
| > 500 | > 500 | CC1=C(C(=O)Nc2ccc3[nH]ncc3c2)C(c2ccc(F)cc2)n2ncc(C(=O)NCCN(C)C)c2N1 (centres unmarked) [Example 92, N3-(2-(dimethylamino)ethyl)-7-(4-fluorophenyl)-N6-(1H-indazol-5-yl)-5-methyl-4,7-dihydropyrazolo[1,5-a]pyrimidine-3,6-dicarboxamide] |
| < 50 | < 50 | CC1=C(C(=O)Nc2ccc3[nH]ncc3c2)C(c2ccc(F)cc2)n2nc(C(=O)N3CCNCC3)cc2N1 (centres unmarked) [Example 93, 7-(4-fluorophenyl)-N-(1H-indazol-5-yl)-5-methyl-2-(piperazine-1-carbonyl)-4,7-dihydropyrazolo[1,5-a]pyrimidine-6-carboxamide] |
| < 50 | < 50 | CC1=C(C(=O)Nc2ccc3[nH]ncc3c2)C(c2ccc(F)cc2)n2nc(CO)cc2N1 (single isomer, unassigned) [Example 71A, 7-(4-fluorophenyl)-2-(hydroxymethyl)-N-(1H-indazol-5-yl)-5-methyl-4,7-dihydropyrazolo[1,5-a]pyrimidine-6-carboxamide] |
| < 50 | < 50 | CC1=C(C(=O)Nc2ccc3cnccc3c2)C(C2Cc3ccccc3C2)n2nc(CO)cc2N1 (single isomer, unassigned) [Example 60A, 7-(2,3-dihydro-1H-inden-2-yl)-2-(hydroxymethyl)-N-(isoquinolin-6-yl)-5-methyl-4,7-dihydropyrazolo[1,5-a]pyrimidine-6-carboxamide] |
| < 50 | < 50 | O=C(Nc1ccc2cnccc2c1)C1=C(C2CC2)Nc2cc(CO)nn2C1c1ccc(C(F)(F)F)c(F)c1 (centres unmarked) [Example 118, 5-cyclopropyl-7-(3-fluoro-4-(trifluoromethyl)phenyl)-2-(hydroxymethyl)-N-(isoquinolin-6-yl)-4,7-dihydropyrazolo[1,5-a]pyrimidine-6-carboxamide] |
| < 50 | < 50 | COCC1=C(C(=O)Nc2ccc3cnccc3c2)C(c2ccc(C(F)(F)F)c(F)c2)n2nc(CO)cc2N1 (centres unmarked) [Example 119, 7-(3-fluoro-4-(trifluoromethyl)phenyl)-2-(hydroxymethyl)-N-(isoquinolin-6-yl)-5-(methoxymethyl)-4,7-dihydropyrazolo[1,5-a]pyrimidine-6-carboxamide] |
| < 50 | < 50 | CC1=C(C(=O)Nc2ccc3cnccc3c2)C(c2ccc(C(F)(F)F)c(F)c2)n2nc(C3COC3)cc2N1 (centres unmarked) [Example 116, 7-(3-fluoro-4-(trifluoromethyl)phenyl)-N-(isoquinolin-6-yl)-5-methyl-2-(oxetan-3-yl)-4,7-dihydropyrazolo[1,5-a]pyrimidine-6-carboxamide] |
| < 50 | < 50 | CC1=C(C(=O)Nc2ccc3cnccc3c2)C(C2Cc3ccccc3C2)n2nc(CN(C)C)cc2N1 (single isomer, unassigned) [Example 124b, 7-(2,3-dihydro-1H-inden-2-yl)-2-((dimethylamino)methyl)-N-(isoquinolin-6-yl)-5-methyl-4,7-dihydropyrazolo[1,5-a]pyrimidine-6-carboxamide] |
| < 50 | < 50 | CC1=C(C(=O)Nc2ccc3[nH]ncc3c2)C(c2ccc(C)cc2)n2nc(C(=O)O)cc2N1 (centres unmarked) [Example 74, 6-((1H-indazol-5-yl)carbamoyl)-5-methyl-7-(p-tolyl)-4,7-dihydropyrazolo[1,5-a]pyrimidine-2-carboxylic acid] |
| < 50 | < 50 | CC1=C(C(=O)Nc2ccc3cnccc3c2)C(C2COc3ccccc3O2)n2nc(CO)cc2N1 (single isomer, unassigned) [Example 72B, 7-(2,3-dihydrobenzo[b][1,4]dioxin-2-yl)-2-(hydroxymethyl)-N-(isoquinolin-6-yl)-5-methyl-4,7-dihydropyrazolo[1,5-a]pyrimidine-6-carboxamide] |
| < 50 | < 50 | CC1=C(C(=O)Nc2ccc3[nH]ncc3c2)C(c2ccc(Cl)cc2)n2nnnc2N1 (single isomer, unassigned) [Example 24A, 7-(4-chlorophenyl)-N-(1H-indazol-5-yl)-5-methyl-4,7-dihydrotetrazolo[1,5-a]pyrimidine-6-carboxamide] |
| 50 to 500 | 50 to 500 | CC1=C(C(=O)Nc2ccc3cnccc3c2)C(c2ccc(C(F)(F)F)c(F)c2)n2nc(CN3CCCCC3)cc2N1 (single isomer, unassigned) [Example 97A, 7-(3-fluoro-4-(trifluoromethyl)phenyl)-N-(isoquinolin-6-yl)-5-methyl-2-(piperidin-1-ylmethyl)-4,7-dihydropyrazolo[1,5-a]pyrimidine-6-carboxamide] |
| < 50 | < 50 | COc1ccc(-c2cc3n(n2)C(c2ccc(F)cc2)C(C(=O)Nc2ccc4[nH]ncc4c2)=C(C)N3)cc1 (centres unmarked) [Example 20, 7-(4-fluorophenyl)-N-(1H-indazol-5-yl)-2-(4-methoxyphenyl)-5-methyl-4,7-dihydropyrazolo[1,5-a]pyrimidine-6-carboxamide] |
| < 50 | < 50 | CC1=C(C(=O)Nc2ccc3[nH]ncc3c2)C(c2ccc(C(F)(F)F)c(F)c2)n2nnnc2N1 (single isomer, unassigned) [Example 25A, 7-(3-fluoro-4-(trifluoromethyl)phenyl)-N-(1H-indazol-5-yl)-5-methyl-4,7-dihydrotetrazolo[1,5-a]pyrimidine-6-carboxamide] |
| < 50 | < 50 | CC1=C(C(=O)Nc2ccc3cnccc3c2)C(c2ccc(C(F)(F)F)c(F)c2)n2nc(CN3CCCCC3)cc2N1 (single isomer, unassigned) [Example 97B, 7-(3-fluoro-4-(trifluoromethyl)phenyl)-N-(isoquinolin-6-yl)-5-methyl-2-(piperidin-1-ylmethyl)-4,7-dihydropyrazolo[1,5-a]pyrimidine-6-carboxamide] |
